Measurements taken from paper PMC9866861, “The More the Better—Investigation of Polymethoxylated N-Carboranyl Quinazolines as Novel Hybrid Breast Cancer Resistance Protein Inhibitors” (Pharmaceutics, 2023).
“Also recorded” adds a separate entry of the source.

Tests used:
human ABCG2 transporter = target: T1, human ABCG2 transporter (Homo sapiens, UniProt Q9UNQ0); experiment: Hoechst 33342 accumulation assay (MDCKII-hABCG2 vs MDCKII-WT); type: cell-based; details: for intracellular Hoechst 33342 accumulation / inhibition of ABCG2-mediated Hoechst efflux: 0.5 and 1.0 µM compound, Ko143 1 µM, 4 h, vs solvent control; for inhibition of human ABCG2 transporter in Hoechst 33342 accumulation assay: 0.5 µM
T1 construct: expressed in transfected cells; host or cells: MDCKII (Madin-Darby canine kidney) cells transfected with human ABCG2
T1 sequence (Q9UNQ0 1-655): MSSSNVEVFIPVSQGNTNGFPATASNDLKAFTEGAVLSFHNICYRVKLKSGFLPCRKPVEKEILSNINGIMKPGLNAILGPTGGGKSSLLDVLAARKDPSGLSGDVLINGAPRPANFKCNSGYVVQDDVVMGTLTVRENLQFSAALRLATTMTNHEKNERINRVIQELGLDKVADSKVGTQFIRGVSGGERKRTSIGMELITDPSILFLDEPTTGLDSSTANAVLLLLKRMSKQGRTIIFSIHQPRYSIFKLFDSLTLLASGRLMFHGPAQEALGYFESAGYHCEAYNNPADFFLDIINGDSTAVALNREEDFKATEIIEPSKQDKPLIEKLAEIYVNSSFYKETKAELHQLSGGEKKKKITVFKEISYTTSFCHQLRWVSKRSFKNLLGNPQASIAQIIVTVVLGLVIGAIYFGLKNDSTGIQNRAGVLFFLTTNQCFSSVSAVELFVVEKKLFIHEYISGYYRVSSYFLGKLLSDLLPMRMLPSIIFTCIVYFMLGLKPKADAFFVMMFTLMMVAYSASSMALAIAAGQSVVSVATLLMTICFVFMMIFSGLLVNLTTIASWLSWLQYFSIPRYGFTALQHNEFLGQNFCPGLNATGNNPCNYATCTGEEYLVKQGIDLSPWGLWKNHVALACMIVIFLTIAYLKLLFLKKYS
Experimental: The Hoechst 33342 accumulation assay was used to detect an interaction of the investigated compounds with the human ABCG2 transporter. The assay protocol was adapted from that published by Wassermann et al.. The MDCKII-hABCG2 (2 × 10^4 cells/mL) and MDCKII-WT (3 × 10^4 cells/mL) cells were seeded in 96-well plates and cultured for 72 h. Afterwards, the sub-confluent monolayers were treated with 0.5 µM and 1.0 µM of the investigational compounds or its respective solvent control (0.1% DMSO) for 4 h. […] After 5 and 20 min, the cells were washed twice with ice-cold PBS buffer solution and lyzed with 100 µL/well 0.1% (v/v) SDS/PBS. The intracellular Hoechst 33342 amount was detected by spectrofluorometry (360 nm excitation/465 nm emission wavelengths, Tecan Infinite F200 Pro, Crailsheim, Germany). The examined fluorescence subtracted by the background of non-treated cells was correlated to the protein amount quantified by the bicinchoninic acid assay (BCA, Thermo Scientific, Rockford, IL, USA) following the manufacturer’s instructions. Relative fluorescence units (RFU) were calculated as the relation of fluorescence/mg protein of MDCKII-hABCG2 cells to MDCKII-WT cells, normalized to the solvent control set as 1 and expressed as mean ± SEM. The data from the Hoechst 3342 accumulation assay (five independent experiments N = 5) were tested for normality with the Shapiro-Wilk test. Significant differences compared to the solvent control were analyzed by one-way ANOVA with the Holm-Šidák post hoc test using SigmaPlot 14.5 (Systec Software, San Jose, CA, USA). An inhibition of human ABCG2 efflux transport activity is defined as the significant difference to the solvent control (0.1% DMSO).

MDCKII-WT cells = experiment: WST-1 cell proliferation assay (cytotoxicity), MDCKII-WT; type: cell-based, canine; details: WST-1, 48 h; for IC50: IC50 = 50% reduced cell viability, mean ± SEM, N = 3
Experimental: (§1) The MDCKII-hABCG2 and MDCKII-WT cells were purchased from Alfred Schinkel (Het Nederlands Kanker Instituut, Amsterdam, The Netherlands) and were cultivated in MEM (minimal essential medium) with Earle’s Salts (2.2 g/L NaHCO3, stable glutamine; Biowest, Nuaillé, France) supplemented with 10% (v/v) fetal calf serum (Life Technology, Karlsruhe, Germany), 1% (v/v) non-essential amino acids (Biowest, Nuaillé, France), 100 U/mL penicillin, and 100 µg/mL streptomycin (Biowest, Nuaillé, France). The cells were grown in a humidified atmosphere (37 °C, 5% CO2) and were sub-cultured every 3 to 4 days using 0.05% trypsin/0.02% EDTA (Biowest, Nuaillé, France), up to a total of 14 passages.
(§2) MDCKII-hABCG2 cells and their parental MDCKII-WT cells were seeded in 96-well plates (TPP, Trasadingen, Switzerland) in a density of 2 × 10^4 cells/mL and 3 × 10^4 cells/mL, respectively. After 48 h, the cells were incubated with increasing concentrations of up to 50 µM of the novel synthesized compounds, with 0.1% Triton X-100 as the positive control and solvent (0.1% DMSO) as the negative control for 48 h. Afterwards, the substance-specific cytotoxicity was determined by the water-soluble tetrazolium-1 (4-[3-(4-iodophenyl)-2-(4-nitro-phenyl)-2H-5-tetrazolio]-1,3-benzene sulfonate; WST-1) assay as previously described. The cell viability was determined by microplate reader at 450 nm (Tecan Sunrise, Crailsheim, Germany). The data of three independent experiments (N = 3) were tested for normality with the Shapiro-Wilk test. The significant differences compared to solvent control were analyzed by one-way ANOVA with the Holm-Šidák post hoc test using SigmaPlot 14.5 (Systec Software, San Jose, CA, USA). The data were normalized against the vehicle control (0.1% DMSO) and were expressed as mean ± SEM.

MDCKII-hABCG2 cells [1] = experiment: WST-1 cell proliferation assay (cytotoxicity), MDCKII-hABCG2; type: cell-based, canine; details: for IC50: WST-1, 48 h, IC50 = 50% reduced cell viability, mean ± SEM, N = 3; for cell viability: MDCKII-hABCG2, highest concentration 50 µM, 48 h
Experimental: as §1, §2

MDCKII-hABCG2 cells [2] = experiment: Reversal of ABCG2-mediated mitoxantrone resistance (WST-1); type: cell-based, canine; details: for Left-Shift Factor: MDCKII-hABCG2, MXN + 1 µM compound, (IC50 minus SEM of MXN alone) by (IC50 plus SEM of combination)
Experimental: Afterwards, the WST-1 assay was performed as described. […] All data were normalized against the vehicle control and were expressed as mean ± SEM, calculated from at least three independent experiments.

“N-(closo-1,7-dicarbadodecaboran(12)-9-yl)-2-(3,4,5-trimethoxyphenyl)-quinazolin-4-amine [QCd]” was tested, and the “intracellular Hoechst 33342 accumulation / inhibition of ABCG2-mediated Hoechst efflux” value (human ABCG2 transporter) was “did not affect the human ABCG2-mediated Hoechst efflux”, the IC50 (MDCKII-WT cells) was greater than 50 µM and the IC50 (MDCKII-hABCG2 cells [1]) was greater than 50 µM.

For “N-(closo-1,7-dicarbadodecaboran(12)-9-yl)-2-(3,4-dimethoxyphenyl)-quinazolin-4-amine [QCc]”, the “inhibition of human ABCG2 transporter in Hoechst 33342 accumulation assay” value (human ABCG2 transporter) was “inhibited the human ABCG2 transporter”, the “intracellular Hoechst 33342 accumulation / inhibition of ABCG2-mediated Hoechst efflux” value (human ABCG2 transporter) was “the only compound exhibiting inhibition within the tested concentration range” and the “reversal of MXN resistance” value (MDCKII-hABCG2 cells [2]; MDCKII-hABCG2, 1 µM compound with MXN) was “able to reverse MXN resistance”. The “Left-Shift Factor” value (MDCKII-hABCG2 cells [2]) was 5.4-fold, the IC50 (MDCKII-WT cells) was greater than 50 µM and the decreased cell viability (MDCKII-hABCG2 cells [1]; MDCKII-hABCG2, WST-1, 48 h, up to 50 µM) was “about 40%”. The IC50 (MDCKII-hABCG2 cells [1]) was greater than 50 µM.

With “N-(closo-1,7-dicarbadodecaboran(12)-9-yl)-2-(4-methoxyphenyl)-quinazolin-4-amine [QCb]” the “intracellular Hoechst 33342 accumulation / inhibition of ABCG2-mediated Hoechst efflux” value (human ABCG2 transporter) was “did not affect the human ABCG2-mediated Hoechst efflux”, the IC50 (MDCKII-WT cells) was 44.17 ± 0.174 µM and the cell viability (MDCKII-hABCG2 cells [1]) was 30%. The IC50 (MDCKII-hABCG2 cells [1]) was greater than 10 µM.

With “N-(closo-1,7-dicarbadodecaboran(12)-9-yl)-2-phenylquinazolin-4-amine [QCa]” the “intracellular Hoechst 33342 accumulation / inhibition of ABCG2-mediated Hoechst efflux” value (human ABCG2 transporter) was “did not affect the human ABCG2-mediated Hoechst efflux”, the IC50 (MDCKII-WT cells) was 43.23 ± 0.159 µM and the cell viability (MDCKII-hABCG2 cells [1]) was 30%. For the same substance, the IC50 (MDCKII-hABCG2 cells [1]) was greater than 10 µM.

“N-(closo-1,7-dicarbadodecaboran(12)-9-yl)-6,7-dimethoxy-2-(3,4,5-trimethoxyphenyl)-quinazolin-4-amine [DMQCd]” was tested, and the “inhibition of human ABCG2 transporter in Hoechst 33342 accumulation assay” value (human ABCG2 transporter) was “inhibited the human ABCG2 transporter”, the “intracellular Hoechst 33342 accumulation / inhibition of ABCG2-mediated Hoechst efflux” value (human ABCG2 transporter) was “strongest inhibition at 0.5 µM with a comparable level as the reference Ko143” and the IC50 (MDCKII-WT cells) was greater than 50 µM. The IC50 (MDCKII-hABCG2 cells [1]) was greater than 50 µM.

For “N-(closo-1,7-dicarbadodecaboran(12)-9-yl)-6,7-dimethoxy-2-(3,4-dimethoxy-phenyl)-quinazolin-4-amine [DMQCc]”, the “intracellular Hoechst 33342 accumulation / inhibition of ABCG2-mediated Hoechst efflux” value (human ABCG2 transporter) was “only marginal increases in Hoechst 33342 accumulation; also recorded: no significant inhibition”, the “Left-Shift Factor” value (MDCKII-hABCG2 cells [2]) was 9.8-fold and the IC50 (MDCKII-WT cells) was greater than 50 µM. It also gave an IC50 (MDCKII-hABCG2 cells [1]) greater than 50 µM.

For “N-(closo-1,7-dicarbadodecaboran(12)-9-yl)-6,7-dimethoxy-2-(4-methoxy-phenyl)quinazolin-4-amine [DMQCb]”, the “intracellular Hoechst 33342 accumulation / inhibition of ABCG2-mediated Hoechst efflux” value (human ABCG2 transporter) was “only marginal increases in Hoechst 33342 accumulation; also recorded: no significant inhibition”, the “Left-Shift Factor” value (MDCKII-hABCG2 cells [2]) was 7.2-fold and the decreased cell viability (MDCKII-WT cells; MDCKII-WT) was roughly 30%. It also gave an IC50 (MDCKII-WT cells) greater than 25 µM and an IC50 (MDCKII-hABCG2 cells [1]) greater than 25 µM.

With “N-(closo-1,7-dicarbadodecaboran(12)-9-yl)-6,7-dimethoxy-2-phenyl-quinazolin-4-amine [DMQCa]” the “intracellular Hoechst 33342 accumulation / inhibition of ABCG2-mediated Hoechst efflux” value (human ABCG2 transporter) was “improved inhibitory potency at 1.0 µM”, the “Left-Shift Factor” value (MDCKII-hABCG2 cells [2]) was 4.3-fold and the IC50 (MDCKII-WT cells) was greater than 50 µM. It also gave an IC50 (MDCKII-hABCG2 cells [1]) greater than 50 µM.
